Legend:
[1] = biological target: T1, Dihydrofolate reductase (Pneumocystis carinii) (UniProt P16184); test: Inhibition of Pneumocystis carinii DHFR at 20 uM under 37 degC by spectrophotometry
T1 sequence (whole entry): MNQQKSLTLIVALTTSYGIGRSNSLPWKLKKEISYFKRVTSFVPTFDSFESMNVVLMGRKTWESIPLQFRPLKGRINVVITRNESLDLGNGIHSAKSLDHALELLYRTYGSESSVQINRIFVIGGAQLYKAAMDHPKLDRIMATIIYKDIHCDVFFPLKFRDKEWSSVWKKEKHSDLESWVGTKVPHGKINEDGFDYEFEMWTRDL

[2] = biological target: T2, Dihydrofolate reductase (Rattus norvegicus) (UniProt Q920D2); test: Inhibition of rat liver DHFR at 196 uM under 37 degC by spectrophotometry
T2 sequence (whole entry): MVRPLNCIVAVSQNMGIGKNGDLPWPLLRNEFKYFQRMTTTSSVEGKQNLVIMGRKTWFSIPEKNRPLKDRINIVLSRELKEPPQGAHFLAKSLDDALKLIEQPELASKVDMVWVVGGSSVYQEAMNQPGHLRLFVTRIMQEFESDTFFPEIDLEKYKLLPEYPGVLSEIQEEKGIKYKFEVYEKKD

Dihydrofolate reductase [3] = biological target: T3, Dihydrofolate reductase (Pneumocystis carinii, UniProt P16184)
T3 sequence (P16184 whole entry): T1 sequence (whole entry)
Description: Inhibition of Pneumocystis carinii DHFR at 37 degC by spectrophotometry

Dihydrofolate reductase [4] = biological target: T4, Dihydrofolate reductase (Rattus norvegicus, UniProt Q920D2)
T4 sequence (Q920D2 whole entry): T2 sequence (whole entry)
Description: Inhibition of rat liver DHFR at 37 degC by spectrophotometry

[5] = biological target: T5, Bifunctional dihydrofolate reductase-thymidylate synthase (Toxoplasma gondii, UniProt Q07422)
T5 sequence (Q07422 whole entry): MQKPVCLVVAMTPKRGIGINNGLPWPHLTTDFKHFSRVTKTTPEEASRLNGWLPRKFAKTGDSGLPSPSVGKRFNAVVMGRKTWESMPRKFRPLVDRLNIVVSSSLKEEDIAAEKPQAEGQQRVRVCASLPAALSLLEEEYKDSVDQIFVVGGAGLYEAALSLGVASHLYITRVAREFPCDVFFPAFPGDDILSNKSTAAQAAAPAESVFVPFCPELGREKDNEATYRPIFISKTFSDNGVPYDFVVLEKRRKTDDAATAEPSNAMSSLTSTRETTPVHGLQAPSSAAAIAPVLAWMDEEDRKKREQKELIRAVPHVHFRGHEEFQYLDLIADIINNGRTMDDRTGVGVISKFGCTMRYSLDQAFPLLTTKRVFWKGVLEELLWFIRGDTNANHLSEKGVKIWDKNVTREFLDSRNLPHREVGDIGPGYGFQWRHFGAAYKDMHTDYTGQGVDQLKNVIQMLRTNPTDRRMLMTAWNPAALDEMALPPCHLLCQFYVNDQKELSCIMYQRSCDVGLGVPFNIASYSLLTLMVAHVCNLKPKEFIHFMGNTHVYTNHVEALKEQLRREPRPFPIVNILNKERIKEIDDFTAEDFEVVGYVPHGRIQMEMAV
Description: Inhibition of Toxoplasma gondii DHFR at 37 degC by spectrophotometry

[6] = biological target: T6, Dihydrofolate reductase (Mycobacterium avium) (UniProt O30463); details: 196 uM
T6 sequence (whole entry): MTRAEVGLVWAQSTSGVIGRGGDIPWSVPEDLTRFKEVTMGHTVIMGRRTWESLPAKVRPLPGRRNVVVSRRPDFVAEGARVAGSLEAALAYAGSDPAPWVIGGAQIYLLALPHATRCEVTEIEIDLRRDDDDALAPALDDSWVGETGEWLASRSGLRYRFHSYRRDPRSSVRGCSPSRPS

Thymidylate synthase = Thymidylate synthase (Homo sapiens, UniProt P04818)
Chain of Thymidylate synthase (P04818 whole entry): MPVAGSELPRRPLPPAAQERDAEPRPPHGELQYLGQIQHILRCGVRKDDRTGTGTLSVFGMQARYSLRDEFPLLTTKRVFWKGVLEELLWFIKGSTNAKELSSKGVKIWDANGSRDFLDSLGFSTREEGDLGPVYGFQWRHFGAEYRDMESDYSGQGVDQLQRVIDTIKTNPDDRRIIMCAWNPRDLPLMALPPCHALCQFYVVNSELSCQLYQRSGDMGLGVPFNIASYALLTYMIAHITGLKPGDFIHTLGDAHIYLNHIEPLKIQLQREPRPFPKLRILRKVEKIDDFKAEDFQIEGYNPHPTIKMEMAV
Description: Inhibition of human thymidylate synthase at 30 degC under pH 7.4 by spectrophotometry

[7] = biological target: T5, Bifunctional dihydrofolate reductase-thymidylate synthase; remark: listed apart in the source
Dihydrofolate reductase [8] = biological target: T7, Dihydrofolate reductase (Mycobacterium avium, UniProt O30463)
T7 sequence (O30463 whole entry): T6 sequence (whole entry)
Description: Inhibition of Mycobacterium avium DHFR at 37 degC by spectrophotometry

Dihydrofolate reductase [9] = biological target: T8, Dihydrofolate reductase (Homo sapiens, UniProt P00374)
T8 sequence (P00374 whole entry): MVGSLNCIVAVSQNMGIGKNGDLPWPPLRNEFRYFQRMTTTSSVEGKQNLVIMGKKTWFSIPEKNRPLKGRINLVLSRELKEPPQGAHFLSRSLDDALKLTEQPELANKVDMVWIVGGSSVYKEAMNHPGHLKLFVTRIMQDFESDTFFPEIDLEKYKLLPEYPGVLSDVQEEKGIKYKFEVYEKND
Description: Inhibition of human DHFR at 30 degC under pH 7.4 by spectrophotometry

Dihydrofolate reductase [10] = biological target: T9, Dihydrofolate reductase (Escherichia coli, UniProt P0ABQ4)
T9 sequence (P0ABQ4 whole entry): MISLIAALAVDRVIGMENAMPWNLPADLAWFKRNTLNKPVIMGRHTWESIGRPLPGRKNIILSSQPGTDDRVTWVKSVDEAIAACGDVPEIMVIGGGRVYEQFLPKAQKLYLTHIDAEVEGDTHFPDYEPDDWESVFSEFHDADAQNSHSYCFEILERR
Description: Inhibition of Escherichia coli DHFR at 30 degC under pH 7.4 by spectrophotometry

[11] = biological target: T5, Bifunctional dihydrofolate reductase-thymidylate synthase; remark: listed apart in the source
Description: Inhibition of Toxoplasma gondii DHFR at 30 degC under pH 7.4 by spectrophotometry

[12] = biological target: T6, Dihydrofolate reductase (Mycobacterium avium); test: Inhibition of Mycobacterium avium DHFR at 31 uM under 37 degC by spectrophotometry
[13] = biological target: T1, Dihydrofolate reductase (Pneumocystis carinii); test: Inhibition of Pneumocystis carinii DHFR at 31 uM under 37 degC by spectrophotometry

Row | SMILES | IC50 (Dihydrofolate reductase [3]) [µM] | IC50 (Dihydrofolate reductase [4]) [µM] | IC50 (Dihydrofolate reductase [8]) [µM] | other results
1 | Cc1cccc(C)c1Sc1oc2nc(N)nc(N)c2c1C | > 20 | > 196 |  | inhibition [1]: 27%; inhibition [2]: 41%; IC50 [5]: 19.7 µM; inhibition [6]: 20%
2 | Cc1c(Sc2cccc3ccccc23)oc2nc(N)nc(N)c12 | 8.6 | > 83 |  | IC50 [5]: > 83 µM
3 | Nc1nc(N)c2c(CNc3ccc(C(=O)N[C@@H](CCC(=O)O)C(=O)O)cc3)coc2n1 |  |  |  | IC50 (Thymidylate synthase): > 200 µM
4 | Nc1nc(N)c2c(CCc3ccc(C(=O)N[C@@H](CCC(=O)O)C(=O)O)cc3)coc2n1 |  |  |  | IC50 (Thymidylate synthase): > 200 µM
5 | CN(Cc1coc2nc(N)nc(N)c12)c1ccc(C(=O)N[C@@H](CCC(=O)O)C(=O)O)cc1 [FURO[2,3D]PYRIMIDINE ANTIFOLATE] |  |  |  | IC50 (Thymidylate synthase): > 200 µM
6 | Cc1c(Sc2ccc(C(=O)N[C@@H](CCC(=O)O)C(=O)O)cc2)oc2nc(N)nc(N)c12 | 0.078 | 20.5 | 0.00973 | IC50 [7]: 27 µM; IC50 (Dihydrofolate reductase [9]): 4 µM; IC50 (Dihydrofolate reductase [10]): 0.02 µM; IC50 [11]: 2.2 µM; IC50 [5]: 12 µM
7 | COc1ccc(Sc2oc3nc(N)nc(N)c3c2C)cc1OC | 36.4 | 66.6 | 16.3 | 
8 | Cc1cccc(C(C)C)c1Sc1oc2nc(N)nc(N)c2c1C | 36.5 |  |  | 
9 | Cc1c(Sc2c(F)c(F)c(C(F)(F)F)c(F)c2F)oc2nc(N)nc(N)c12 | > 31 | 39.1 |  | inhibition [12]: 8%; inhibition [13]: 39%
10 | COc1cccc(Sc2oc3nc(N)nc(N)c3c2C)c1 | 25.2 | 51.3 | 28.4 | 
11 | COc1ccc(Sc2oc3nc(N)nc(N)c3c2C)cc1 | 34.7 | 61.9 | 25.5 | 
12 | COc1ccccc1Sc1oc2nc(N)nc(N)c2c1C | 20.3 | 55.6 | 23.9 | 
13 | COc1ccc(OC)c(Sc2oc3nc(N)nc(N)c3c2C)c1 | 24 | 42.2 | 61.9 | 
14 | Cc1c(Sc2c(Cl)cccc2Cl)oc2nc(N)nc(N)c12 | 60 | 14.4 |  | 
15 | Cc1c(Sc2ccc3ccccc3c2)oc2nc(N)nc(N)c12 | > 12 | > 12 |  | IC50 [5]: > 12 µM

From ChEMBL document CHEMBL1159120, “2,4-Diamino-5-methyl-6-substituted arylthio-furo[2,3-d]pyrimidines as novel classical and nonclassical antifolates as potential dual thymidylate synthase and dihydrofolate reductase inhibitors” (Bioorg Med Chem, 2010)
